≈ marks a conversion by molar mass, not a printed value.
Experiments:
human wild type-CFTR [1] = biological target: T1, human wild type-CFTR (Homo sapiens, UniProt P13569); assay: Cell-based YFP assay; set-up: expressed in transfected cells; host or cells: CHO-K1 (Chinese hamster ovary); details: CHO-K1 cells expressing human wild type-CFTR and YFP-H148Q/I152L; forskolin 20 μM = 100% activity; read-out: Cell-based YFP Assay (EC50) Concentration Range
Summary of the method: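 CHO-K1 cells co-expressing human wild-type CFTR and YFP-H148Q/I152L halide sensor, grown 48 h at 37 °C, then in PBS. YFP quenching by I⁻ influx read at 37 °C after adding 140 mM I⁻ solution, sampled every 0.4 s for 14 s. Triplicates averaged; EC50 fitted.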

[2] = biological target: T2, Human recombinant PDE4A1A (Homo sapiens, UniProt P27815); assay: Human phosphodiesterase 4 (PDE4) inhibition, PDE4A1A; assay type: biochemical; details: read-out: % inhibition range at 10 uM PDE4A1A; 10 uM test compound
T2 construct: purchased BPS Bioscience; host or cells: insect Sf9 cells
T2 sequence (P27815 1-647 isoform P27815-4): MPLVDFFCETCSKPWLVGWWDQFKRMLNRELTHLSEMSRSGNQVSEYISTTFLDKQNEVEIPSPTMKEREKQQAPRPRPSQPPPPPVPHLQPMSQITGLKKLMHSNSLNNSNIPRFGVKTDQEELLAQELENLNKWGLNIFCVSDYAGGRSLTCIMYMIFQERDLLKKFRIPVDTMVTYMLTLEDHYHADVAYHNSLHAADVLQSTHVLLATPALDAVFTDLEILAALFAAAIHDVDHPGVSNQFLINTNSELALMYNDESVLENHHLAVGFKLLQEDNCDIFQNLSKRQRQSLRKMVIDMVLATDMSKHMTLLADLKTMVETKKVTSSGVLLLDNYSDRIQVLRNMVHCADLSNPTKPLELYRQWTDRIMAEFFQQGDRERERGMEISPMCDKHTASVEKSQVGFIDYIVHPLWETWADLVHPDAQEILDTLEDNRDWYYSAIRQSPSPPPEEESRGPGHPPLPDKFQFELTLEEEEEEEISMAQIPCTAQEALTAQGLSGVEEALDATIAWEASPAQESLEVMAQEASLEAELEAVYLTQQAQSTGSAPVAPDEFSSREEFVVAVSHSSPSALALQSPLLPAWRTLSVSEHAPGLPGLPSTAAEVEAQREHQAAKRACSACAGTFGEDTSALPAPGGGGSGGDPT
Protocol: (§1) […] Human recombinant PDE4A1A, PDE4B 1, PDE4C1 and PDE4D2 are respectively expressed in each host cell (insect Sf9 cells, BPS Bioscience). Preincubation of 10 μM test compounds or vehicle was proceeded with 20 ng/ml PDE4A1A or 4 ng/ml PDE4B 1 or 8 ng/ml PDE4C1 or 5 ng/ml PDE4D2 enzyme in Tris-HCl buffer pH 7.2 for 15 minutes at 25° C. 100 nM fluorescein (FAM) labeled cAMP for another 30 minutes incubation period was added in order to initiate the enzymatic reaction and addition of IMAP binding solution was followed for its termination. Specifically, IMAP complexes with phosphate groups on nucleotide monophosphate generated from cyclic nucleotides through PDE activity. The amount of complex formed is determined by reading spectrofluorimetrical signal at 470 nm/525 nm.

Human recombinant PDE4C1 = biological target: T3, Human recombinant PDE4C1 (Homo sapiens, UniProt Q08493); assay: Human phosphodiesterase 4 (PDE4) inhibition, PDE4C1; assay type: biochemical; details: read-out: % inhibition range at 10 uM PDE4C1; 10 uM test compound
T3 construct: purchased BPS Bioscience; host or cells: insect Sf9 cells
T3 sequence (Q08493 whole entry): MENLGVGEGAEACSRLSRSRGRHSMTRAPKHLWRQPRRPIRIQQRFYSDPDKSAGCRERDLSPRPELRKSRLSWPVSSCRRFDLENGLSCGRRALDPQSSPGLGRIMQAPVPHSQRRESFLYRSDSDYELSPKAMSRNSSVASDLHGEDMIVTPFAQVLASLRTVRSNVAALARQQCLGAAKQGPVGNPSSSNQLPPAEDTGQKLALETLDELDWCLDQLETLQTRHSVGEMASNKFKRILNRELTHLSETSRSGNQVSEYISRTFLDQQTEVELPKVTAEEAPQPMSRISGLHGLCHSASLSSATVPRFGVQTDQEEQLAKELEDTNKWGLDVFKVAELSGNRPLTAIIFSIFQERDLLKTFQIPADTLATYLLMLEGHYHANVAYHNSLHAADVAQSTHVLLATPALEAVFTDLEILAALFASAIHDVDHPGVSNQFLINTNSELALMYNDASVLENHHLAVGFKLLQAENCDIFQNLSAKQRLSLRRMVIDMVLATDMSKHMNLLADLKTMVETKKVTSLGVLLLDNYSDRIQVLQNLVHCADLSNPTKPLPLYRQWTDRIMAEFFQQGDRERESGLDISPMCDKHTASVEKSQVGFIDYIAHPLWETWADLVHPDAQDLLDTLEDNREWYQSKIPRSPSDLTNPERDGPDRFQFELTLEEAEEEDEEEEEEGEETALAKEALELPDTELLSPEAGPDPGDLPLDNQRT
Protocol: as §1

[3] = biological target: T4, Human recombinant PDE4B 1 (Homo sapiens, UniProt Q07343); assay: Human phosphodiesterase 4 (PDE4) inhibition, PDE4B 1; assay type: biochemical; details: read-out: % inhibition range at 10 uM PDE4B1; 10 uM test compound
T4 construct: purchased BPS Bioscience; host or cells: insect Sf9 cells
T4 sequence (Q07343 whole entry): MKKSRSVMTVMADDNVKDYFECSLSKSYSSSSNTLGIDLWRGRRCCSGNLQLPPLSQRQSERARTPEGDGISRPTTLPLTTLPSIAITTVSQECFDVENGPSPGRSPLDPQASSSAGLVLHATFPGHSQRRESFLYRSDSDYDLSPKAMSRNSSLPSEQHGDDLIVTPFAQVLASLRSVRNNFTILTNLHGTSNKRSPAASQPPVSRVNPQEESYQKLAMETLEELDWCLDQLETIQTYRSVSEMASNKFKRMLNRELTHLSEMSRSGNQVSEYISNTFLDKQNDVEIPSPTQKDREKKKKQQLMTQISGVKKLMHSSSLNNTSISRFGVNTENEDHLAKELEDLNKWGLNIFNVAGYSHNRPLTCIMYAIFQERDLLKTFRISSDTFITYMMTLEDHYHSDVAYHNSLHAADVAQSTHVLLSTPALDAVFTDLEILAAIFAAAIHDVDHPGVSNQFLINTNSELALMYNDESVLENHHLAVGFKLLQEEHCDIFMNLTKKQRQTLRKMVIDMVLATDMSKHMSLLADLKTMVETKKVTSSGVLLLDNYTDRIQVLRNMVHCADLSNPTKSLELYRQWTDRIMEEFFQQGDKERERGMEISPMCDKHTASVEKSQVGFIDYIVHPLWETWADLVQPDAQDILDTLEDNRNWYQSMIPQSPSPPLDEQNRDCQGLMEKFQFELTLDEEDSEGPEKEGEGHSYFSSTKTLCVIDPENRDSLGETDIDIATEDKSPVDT
Protocol: as §1

human wild type-CFTR [4] = biological target: T1, human wild type-CFTR; assay: Short-circuit current measurement; assay type: cell-based; set-up: expressed in transfected cells; details: FRT cells expressing human wild type-CFTR; Forskolin 20 μM signal used as 100% activity; read-out: Short-circuit current measurement (EC50) Concentration range
Summary of the method: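 Ussing-chamber short-circuit current in FRT cells expressing human wild-type CFTR, grown on Snapwell inserts. Forskolin, test compounds and CFTRinh-172 added to both apical and basolateral baths; apical membrane current and Isc sampled at 4 Hz.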

C57BL/6 female mice = assay: Scopolamine induced tear volume reduction model; assay type: in vivo, mouse; details: scopolamine-injected mice, ophthalmic solution topically on both eyes 3 times a day, phenol red thread; average if evaluated twice
Protocol: Seven-week old C57BL/6 female mice were used.
Scopolamine hydrobromide was purchased from Sigma Aldrich (Cat No. S0929), dissolved in saline, and sterilized prior to use.
Zone-Quick phenol red thread was obtained from Menicon.
The test compounds used in this experiment were dissolved in PBS containing 1% of surfactant.
Scopolamine (0.2 ml of 2.5 mg/mL solution) was injected subcutaneously 3 times a day to induce a decrease in the tear volume in the mouse. At the same time, the ophthalmic solution of test compounds or vehicle were topically administered onto both eyes 3 times a day. Tear volume was measured by phenol red thread before dosing (basal level) and 1 hour after the last administration of scopolamine and ophthalmic solution. The results were obtained by measuring the length of the phenol red thread turning red by tears. The schedule of study is expressed as FIG. 1.
If the test compound was evaluated twice, the average value was used.

Human recombinant PDE4D2 = biological target: T5, Human recombinant PDE4D2 (Homo sapiens, UniProt Q08499); assay: Human phosphodiesterase 4 (PDE4) inhibition, PDE4D2; assay type: biochemical; details: read-out: % inhibition range at 10 uM PDE4D2; 10 uM test compound
T5 construct: purchased BPS Bioscience; host or cells: insect Sf9 cells
T5 sequence (Q08499 303-809 limits assumed): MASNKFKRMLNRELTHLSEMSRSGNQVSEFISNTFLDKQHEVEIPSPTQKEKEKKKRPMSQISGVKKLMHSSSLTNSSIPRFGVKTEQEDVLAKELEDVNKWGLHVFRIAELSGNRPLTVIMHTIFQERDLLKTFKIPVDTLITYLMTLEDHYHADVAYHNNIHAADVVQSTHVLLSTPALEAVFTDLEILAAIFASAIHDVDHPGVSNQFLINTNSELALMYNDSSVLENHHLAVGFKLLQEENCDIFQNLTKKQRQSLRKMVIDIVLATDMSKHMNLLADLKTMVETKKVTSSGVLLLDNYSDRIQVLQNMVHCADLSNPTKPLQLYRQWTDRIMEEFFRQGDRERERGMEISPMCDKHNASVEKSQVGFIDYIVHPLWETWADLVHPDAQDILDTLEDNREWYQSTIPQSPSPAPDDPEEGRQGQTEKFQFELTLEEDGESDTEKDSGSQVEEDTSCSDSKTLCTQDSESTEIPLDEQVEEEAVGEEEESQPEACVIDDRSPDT
Protocol: as §1

[5] = Phosphate-buffered saline (PBS) solubility of compounds; assay type: physicochemical; details: aqueous buffer, thermodynamic from solid, PBS pH 7.5, 0.5 mg/mL, vortexed 90 min, filtered, LC-MS/MS, read-out: Solubility Range
Protocol: PBS solutions (pH 7.5) were prepared according to the following compositions and stored at 4° C. Test compounds were dissolved in PBS (pH 7.5) at 0.5 mg/mL and vortexed for 90 min. The PBS solution was sequentially filtered through a 0.45, 1.2, […] syringe filter. Concentration of test compounds were determined using LC-MS/MS with appropriate dilution of the samples.

T1 sequence (P13569 whole entry): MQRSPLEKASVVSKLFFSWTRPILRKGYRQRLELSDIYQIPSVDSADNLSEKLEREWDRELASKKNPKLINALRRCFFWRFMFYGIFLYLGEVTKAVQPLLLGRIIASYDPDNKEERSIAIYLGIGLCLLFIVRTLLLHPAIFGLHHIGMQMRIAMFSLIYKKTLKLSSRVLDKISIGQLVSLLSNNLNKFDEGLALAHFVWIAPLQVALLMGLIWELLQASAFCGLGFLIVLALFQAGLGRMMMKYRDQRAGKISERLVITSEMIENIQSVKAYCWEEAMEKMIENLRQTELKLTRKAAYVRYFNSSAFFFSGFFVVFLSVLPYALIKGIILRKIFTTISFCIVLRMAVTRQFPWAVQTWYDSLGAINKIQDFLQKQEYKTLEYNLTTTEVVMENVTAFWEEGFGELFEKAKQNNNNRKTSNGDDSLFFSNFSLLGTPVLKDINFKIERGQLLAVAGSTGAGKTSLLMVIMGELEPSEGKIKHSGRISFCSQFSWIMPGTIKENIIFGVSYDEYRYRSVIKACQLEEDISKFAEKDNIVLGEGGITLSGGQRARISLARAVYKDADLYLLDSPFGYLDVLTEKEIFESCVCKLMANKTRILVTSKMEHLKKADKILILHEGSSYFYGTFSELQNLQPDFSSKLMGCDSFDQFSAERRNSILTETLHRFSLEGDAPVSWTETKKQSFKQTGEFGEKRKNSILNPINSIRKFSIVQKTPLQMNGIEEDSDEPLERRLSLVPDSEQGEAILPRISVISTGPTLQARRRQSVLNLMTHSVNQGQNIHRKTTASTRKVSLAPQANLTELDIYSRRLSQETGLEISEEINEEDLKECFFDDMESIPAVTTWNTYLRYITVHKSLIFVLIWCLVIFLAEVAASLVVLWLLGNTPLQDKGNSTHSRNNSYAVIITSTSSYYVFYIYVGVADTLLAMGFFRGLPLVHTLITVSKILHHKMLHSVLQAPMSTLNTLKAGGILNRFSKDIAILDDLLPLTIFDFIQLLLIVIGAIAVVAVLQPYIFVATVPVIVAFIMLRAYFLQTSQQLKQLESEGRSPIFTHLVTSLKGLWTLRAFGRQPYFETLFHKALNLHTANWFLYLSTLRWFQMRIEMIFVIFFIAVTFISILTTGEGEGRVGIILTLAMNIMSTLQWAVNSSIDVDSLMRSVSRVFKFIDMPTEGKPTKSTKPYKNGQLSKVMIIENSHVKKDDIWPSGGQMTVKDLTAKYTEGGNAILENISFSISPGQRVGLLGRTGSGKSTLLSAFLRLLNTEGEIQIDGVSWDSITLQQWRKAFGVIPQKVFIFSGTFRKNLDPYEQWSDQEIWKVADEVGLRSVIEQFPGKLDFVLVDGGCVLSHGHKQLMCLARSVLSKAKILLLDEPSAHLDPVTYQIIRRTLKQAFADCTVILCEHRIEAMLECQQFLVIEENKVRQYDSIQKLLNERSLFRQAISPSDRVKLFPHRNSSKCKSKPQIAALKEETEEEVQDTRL

Question: Which EC50 (human wild type-CFTR [1]) does the source give for `COc1ccc(-c2ccnc3cc(C(=O)Nc4ccc(N5CCOCC5)cn4)nn23)cc1OC` [Compound 205, 7-(3,4-dimethoxyphenyl)-N-(5-morpholinopyridin-2-yl)pyrazolo[1,5-a]pyrimidine-2-carboxamide] here?
Answer: < 200 nM

Question: And the inhibition at 10 µM [2]?
Answer: > 80%

Question: And the inhibition at 10 µM (Human recombinant PDE4C1)?
Answer: > 80%

Question: And the inhibition at 10 µM [3]?
Answer: > 80%

Question: And the EC50 (human wild type-CFTR [4])?
Answer: < 200 nM

Question: And the “Ratio of tear volume (test compound to vehicle)” value (“Ratio of tear volume” for short) (C57BL/6 female mice)?
Answer: 1.12

Question: What about the inhibition at 10 µM (Human recombinant PDE4D2) of the same compound?
Answer: > 80%

Question: Which EC50 (human wild type-CFTR [1]) does the source give for `COc1ccc(-c2ccnc3cc(C(=O)Nc4ccc(N)cc4)nn23)cc1OC` [Compound 257, N-(4-aminophenyl)-7-(3,4-dimethoxyphenyl)pyrazolo [1,5-a]pyrimidine-2-carboxamide] here?
Answer: < 200 nM

Question: What about the inhibition at 10 µM [2] of the same compound?
Answer: > 80%

Question: And the inhibition at 10 µM (Human recombinant PDE4C1)?
Answer: > 80%

Question: What about the inhibition at 10 µM [3] of the same compound?
Answer: > 80%

Question: What about the EC50 (human wild type-CFTR [4]) of the same compound?
Answer: 200 to 2000 nM

Question: What about the “Ratio of tear volume” value (C57BL/6 female mice) of the same compound?
Answer: 1.16

Question: And the inhibition at 10 µM (Human recombinant PDE4D2)?
Answer: > 80%

Question: What about the solubility at 90 min [5] of the same compound?
Answer: < 0.1 µg/mL

Question: For `COc1ccc(-c2ccnc3cc(C(=O)Nc4ccc(C(=O)N[C@H](C(=O)N5CCOCC5)C(C)C)cc4)nn23)cc1OC` [Compound 147, (S)-7-(3,4-dimethoxyphenyl)-N-(4-((3-methyl-1-morpholino-1-oxobutan-2-yl)carbamoyl)phenyl) pyrazolo[1,5-a]pyrimidine-2-carboxamide], which EC50 (human wild type-CFTR [1]) is on record?
Answer: < 200 nM

Question: What about the inhibition at 10 µM [2] of the same compound?
Answer: > 80%

Question: What about the inhibition at 10 µM (Human recombinant PDE4C1) of the same compound?
Answer: > 80%

Question: What about the inhibition at 10 µM [3] of the same compound?
Answer: > 80%

Question: What about the EC50 (human wild type-CFTR [4]) of the same compound?
Answer: < 200 nM

Question: What about the “Ratio of tear volume” value (C57BL/6 female mice) of the same compound?
Answer: 1.03

Question: And the inhibition at 10 µM (Human recombinant PDE4D2)?
Answer: > 80%

Question: And the solubility at 90 min [5]?
Answer: < 0.1 µg/mL

Question: With `COc1ccc(-c2ccnc3cc(C(=O)Nc4ccc(C(=O)N5CCN(C)CC5)cc4)nn23)cc1OC` [Compound 97, 7-(3,4-dimethoxyphenyl)-N-(4-(4-methylpiperazine-1-carbonyl)phenyl)pyrazolo[1,5-a]pyrimidine-2-carboxamide] as the compound, how does the EC50 (human wild type-CFTR [1]) read?
Answer: 200 to 2000 nM

Question: And the inhibition at 10 µM [2]?
Answer: > 80%

Question: And the inhibition at 10 µM (Human recombinant PDE4C1)?
Answer: > 80%

Question: What about the inhibition at 10 µM [3] of the same compound?
Answer: > 80%

Question: What about the EC50 (human wild type-CFTR [4]) of the same compound?
Answer: 200 to 2000 nM

Question: What about the “Ratio of tear volume” value (C57BL/6 female mice) of the same compound?
Answer: 0.95

Question: What about the inhibition at 10 µM (Human recombinant PDE4D2) of the same compound?
Answer: > 80%

Question: What about the solubility at 90 min [5] of the same compound?
Answer: 0.1 to 10 µg/mL (≈ 0.2 to 20 µM)

Question: For `COC(=O)C12CCC(NC(=O)c3cc4nccc(-c5ccc(OC)c(OC)c5)n4n3)(CC1)CC2` [Compound 144, methyl 4-(7-(3,4-dimethoxyphenyl)pyrazolo[1,5-a]pyrimidine-2-carboxamido)bicyclo[2.2.2]octane-1-carboxylate], which EC50 (human wild type-CFTR [1]) is on record?
Answer: < 200 nM

Question: What about the inhibition at 10 µM [2] of the same compound?
Answer: > 80%

Question: And the inhibition at 10 µM (Human recombinant PDE4C1)?
Answer: > 80%

Question: And the inhibition at 10 µM [3]?
Answer: > 80%

Question: And the EC50 (human wild type-CFTR [4])?
Answer: < 200 nM

Question: And the “Ratio of tear volume” value (C57BL/6 female mice)?
Answer: 1.18

Question: What about the inhibition at 10 µM (Human recombinant PDE4D2) of the same compound?
Answer: > 80%

Question: And the solubility at 90 min [5]?
Answer: < 0.1 µg/mL

Question: For `COc1ccc(-c2ccnc3cc(C(=O)Nc4ccc(O)cc4)nn23)cc1OC` [Compound 15, 7-(3,4-dimethoxyphenyl)-N-(4-hydroxyphenyl)pyrazolo[1,5-a]pyrimidine-2-carboxamide], which EC50 (human wild type-CFTR [1]) is on record?
Answer: < 200 nM

Question: And the inhibition at 10 µM [2]?
Answer: > 80%

Question: What about the inhibition at 10 µM (Human recombinant PDE4C1) of the same compound?
Answer: > 80%

Question: What about the inhibition at 10 µM [3] of the same compound?
Answer: > 80%

Question: And the EC50 (human wild type-CFTR [4])?
Answer: < 200 nM

Question: What about the “Ratio of tear volume” value (C57BL/6 female mice) of the same compound?
Answer: 1.29

Question: What about the inhibition at 10 µM (Human recombinant PDE4D2) of the same compound?
Answer: > 80%

Question: What about the solubility at 90 min [5] of the same compound?
Answer: < 0.1 µg/mL

Question: Which EC50 (human wild type-CFTR [1]) does the source give for `COc1ccc(-c2ccnc3cc(C(=O)NC45CCC(C(=O)N6CCN(C)CC6)(CC4)CC5)nn23)cc1OC` [Compound 151, 7-(3,4-dimethoxyphenyl)-N-(4-(4-methylpiperazine-1-carbonyl)bicyclo[2.2.2]octan-1-yl)pyrazolo[1,5-a]pyrimidine-2-carboxamide] here?
Answer: < 200 nM

Question: What about the inhibition at 10 µM [2] of the same compound?
Answer: > 80%

Question: What about the inhibition at 10 µM (Human recombinant PDE4C1) of the same compound?
Answer: > 80%

Question: And the inhibition at 10 µM [3]?
Answer: > 80%

Question: And the EC50 (human wild type-CFTR [4])?
Answer: 200 to 2000 nM

Question: And the “Ratio of tear volume” value (C57BL/6 female mice)?
Answer: 1.40

Question: What about the inhibition at 10 µM (Human recombinant PDE4D2) of the same compound?
Answer: > 80%

Question: And the solubility at 90 min [5]?
Answer: > 10 µg/mL
